Reference: publication PMC12610274, “Identification of Marrubiin as a Cathepsin C Inhibitor for Treating Rheumatoid Arthritis” (Molecules, 2025)

Columns and labels:
NE = molecular target: T1, NE (Homo sapiens, UniProt P08246); test: Recombinant NSPs isolated enzyme assay, NE; assay type: biochemical; conditions: read-out: NE Enz (IC50: μM)
T1 construct: purchased MedChemExpress
Excerpt: (§1) The protocol for evaluating the inhibitory potency of compounds against other cathepsins referred to the CTSC activity assay. Recombinant human CTSB, CTSL, CTSS and CTSK for testing were also purchased from R&D Systems Biotechnology Company. Recombinant human Cat G, NE, and PR3 For testing were purchased from MedChemExpress. A multi-functional microplate reader was used to measure the absorption of Z-Leu-Arg-AMC at excitation/emission wavelengths of 380/460 nm to assess the activity changes of CTSB and CTSL, while the absorption of MCA-Arg-Pro-Lys-Pro-Val-Glu-NVAL-Trp-Arg-Lys(DNP)-NH2 at 320/405 nm was measured to evaluate the activity changes of CTSS and CTSK. Different assay buffers were prepared for diluting samples and measuring the activities of specific NSPs: a buffer containing 50 mM Tris and 750 mM NaCl (pH 7.4) was used for NE and PR3; a buffer containing 50 mM Tris, 750 mM NaCl, 5 mM EDTA (pH 7.4) was used for Cat G; and a buffer containing 25 mM MES, 50 mM NaCl, 5 mM DTT (pH 6.0) was used for CTSC. Synthetic substrates were employed to assess the activities of NSPs and CTSC: H-Gly-Arg-AMC for CTSC, N-MeSuc-Ala-Ala-Pro-Val-pNA for NE, aminobenzoyl-Val-Ala-Asp-Cys-Ala-Asp-Gln-ethylenediamine 2,4-dinitrophenyl for PR3, and N-Suc-Ala-Ala-Pro-Phe-pNA for Cat G. Each group of tests was independently repeated at least 3 times, and IC50 values were calculated using SPSS 10.0.

CTSL = molecular target: T2, CTSL (Homo sapiens, UniProt P07711); test: Human recombinant cathepsins isolated enzyme assay, CTSL; assay type: biochemical; conditions: read-out: CTSL Enz (IC50: μM)
T2 construct: purchased R&D Systems
T2 sequence (P07711 114-333): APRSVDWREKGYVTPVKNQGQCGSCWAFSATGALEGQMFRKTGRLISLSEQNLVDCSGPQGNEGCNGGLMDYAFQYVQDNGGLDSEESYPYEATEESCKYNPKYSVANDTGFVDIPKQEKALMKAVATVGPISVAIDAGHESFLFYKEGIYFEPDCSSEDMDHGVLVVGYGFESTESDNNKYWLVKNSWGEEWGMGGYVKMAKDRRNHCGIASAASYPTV
Excerpt: as §1

Cat G [1] = test: NSPs activity in U937 cells after 5 days of treatment, Cat G; assay type: cell-based, human; conditions: U937, 10 μM
Description: (§2) U937 cells in the logarithmic growth phase were collected and equally divided into six portions. Four of these portions were treated with DMSO solutions of the test compound at varying concentrations to achieve final concentrations of 1.25, 2.5, 5, and 10 μM, respectively. An equal volume of DMSO was added to one portion as a blank control, while another portion treated with a DMSO solution of AZD7986 served as a positive control. The cells were cultured under standard U937 conditions for 5 consecutive days, with daily medium changes and fresh compound treatments administered using the same protocol. Following 5 days of treatment, cells were harvested, washed twice thoroughly with phosphate-buffered saline, and lysed in phosphate-buffered saline containing 1% Triton X-100. The lysates were centrifuged to collect the supernatant, and protein concentrations were determined as previously described to ensure equal total protein loading across all samples. The prepared samples were stored at −20 °C until further analysis. Different assay buffers were prepared for diluting samples and measuring the activities of specific NSPs: a buffer containing 50 mM Tris and 750 mM NaCl (pH 7.4) was used for NE and PR3; a buffer containing 50 mM Tris, 750 mM NaCl, 5 mM EDTA (pH 7.4) was used for Cat G; and a buffer containing 25 mM MES, 50 mM NaCl, 5 mM DTT (pH 6.0) was used for CTSC. […]

PR3 [2] = test: NSPs activity in U937 cells after 5 days of treatment, PR3; assay type: cell-based, human; conditions: U937, 10 μM
Description: as §2

CTSK = molecular target: T3, CTSK (Homo sapiens, UniProt P43235); test: Human recombinant cathepsins isolated enzyme assay, CTSK; assay type: biochemical; conditions: read-out: CTSK Enz (IC50: μM)
T3 construct: purchased R&D Systems
T3 sequence (P43235 115-329): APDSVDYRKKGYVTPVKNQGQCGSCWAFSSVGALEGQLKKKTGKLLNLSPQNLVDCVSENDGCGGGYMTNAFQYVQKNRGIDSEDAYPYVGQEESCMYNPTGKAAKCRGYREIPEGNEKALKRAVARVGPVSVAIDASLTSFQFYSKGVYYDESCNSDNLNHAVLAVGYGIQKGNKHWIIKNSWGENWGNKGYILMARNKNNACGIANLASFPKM
Excerpt: as §1

Cat G [3] = test: Stability (protein level) of NSPs in U937 cells, Western blot, Cat G; assay type: cell-based, human; conditions: U937, 10 μM
Description: The Western blot experiments in this study were performed as described below. Cells in the logarithmic growth phase were collected in appropriate numbers according to different experimental purposes. After being thoroughly washed with phosphate-buffered saline and centrifuged, the cell pellets were resuspended in phosphate-buffered saline to obtain single-cell suspensions. Cells were fully lysed using RIPA buffer (Beyotime, P0013B) supplemented with EDTA-free protease and phosphatase inhibitor (Abcam, ab201120). Total cellular protein solutions were obtained after centrifugation to remove cell debris. The isolated proteins were quantified using the BeyoBCA protein assay kit (Beyotime, P0399M) following the operational protocol. The quantified protein samples were thoroughly mixed with protein loading buffer, boiled on a dry bath for 5 min, and then cooled to room temperature for Western blot analysis. […] Finally, enhanced chemiluminescent horseradish peroxidase substrate (Tanon Science & Technology Co., Ltd., Shanghai, China, 180-506) was used to visualize protein bands on a ChemiDoc XRS system (Bio-Rad Laboratories, Inc., Hercules, CA, USA), and the protein bands were quantified using Image Lab analysis software (Version 6.1) (Bio-Rad). […]

PR3 [4] = molecular target: T4, PR3 (Homo sapiens, UniProt P24158); test: Recombinant NSPs isolated enzyme assay, PR3; assay type: biochemical; conditions: read-out: PR3 Enz (IC50: μM)
T4 construct: purchased MedChemExpress
T4 sequence (P24158 28-256): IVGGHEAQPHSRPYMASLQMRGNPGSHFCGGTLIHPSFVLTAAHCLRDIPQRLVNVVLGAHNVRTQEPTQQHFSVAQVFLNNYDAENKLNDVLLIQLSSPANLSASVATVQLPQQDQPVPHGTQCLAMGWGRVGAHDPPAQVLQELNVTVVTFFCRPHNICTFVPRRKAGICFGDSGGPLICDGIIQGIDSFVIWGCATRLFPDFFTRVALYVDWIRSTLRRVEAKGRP
Excerpt: as §1

T1 sequence (P08246 30-267): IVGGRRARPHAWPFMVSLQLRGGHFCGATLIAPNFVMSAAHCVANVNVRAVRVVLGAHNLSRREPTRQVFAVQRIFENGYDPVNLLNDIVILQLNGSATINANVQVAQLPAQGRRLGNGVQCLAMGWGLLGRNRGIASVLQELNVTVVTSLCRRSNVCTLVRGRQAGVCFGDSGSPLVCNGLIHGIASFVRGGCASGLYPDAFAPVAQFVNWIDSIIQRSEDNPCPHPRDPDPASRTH

## C[C@@H]1C[C@H]2OC(=O)[C@@]3(C)CCC[C@@](C)([C@@H]23)[C@@]1(O)CCc1ccoc1 [Marrubiin, marrubiin]
NE
  IC50: > 10 µM
CTSL
  IC50: 4.4 ± 0.5 µM
Cat G [1]
  Cat G activity, % of DMSO group: 16.9%
PR3 [2]
  PR3 activity, % of DMSO group: 10.3%
CTSK
  IC50: > 5 µM
Cat G [3]; 96 h
  Cat G protein level, % of original level: 30.2%
Cat G [3]; 5 days
  Cat G protein level, % of original level: 12.3%
PR3 [4]
  IC50: > 10 µM
